# Test results from patent publication EP3643303A1, “COMPOUNDS FOR USE IN THE TREATMENT OR PREVENTION OF FIBROTIC DISEASES; PHARMACEUTICAL, COSMETIC COMPOSITIONS AND USES THEREOF” (InnovativeHealth Group SL, priority 2018, dated 2020).
# What was measured:
# [1] = tested on: Nrf2 pathway; assay: Nrf2 activation (ARE-Luc luciferase) in HaCaT-ARE-Luc keratinocytes; assay type: cell-based; details: 6 h, increasing concentrations; Figure 7
# Excerpt: Nrf2 is a transcription factor which, upon activation in response to inflammatory or oxidative stress, activates a robust anti-inflammatory and cytoprotective transcription program. Therefore, Nrf2 activation may represent a novel approach for the treatment of scleroderma and other fibrotic diseases. Thus, the effect of CBD isomers on the activation of the Nrf2 pathway in the keratinocyte cell line HaCaT-ARE-Luc, containing the Nqo1 Antioxidant Response Element (ARE)-Luc reporter plasmid stably transfected, was explored. ARE is activated by all members of the CNC family of factors (Nrf1, Nrf2, Nrf3 and p45 NF-E2). The cells are cultivated in 96-well plates at the concentration of 2x10^4 cells/well in a CO2 incubator at 37°C. For induction of Nrf2 activation the cells were treated with increasing concentrations of the CBD isomers for 6 h. As a positive control the cells were treated with 0,01 mM of Tert-butyl-hydroperoxide (TBHP) for 6 h. […] Luciferase activity was measured using TriStar^2 Berthold/LB942 multimode reader (Berthold Technologies) following the instructions of the luciferase assay kit (Promega, Madison, WI, USA). The background obtained with the lysis buffer was subtracted in each experimental value, and the specific transactivation expressed as fold induction over basal levels (untreated cells).
# [2] = target: TRPV-1 (Homo sapiens, UniProt Q8NER1); assay: Capsaicin-induced cytotoxicity (YOYO-1, Incucyte) in HEK-293T-TRPV1 cells; assay type: cell-based; parameters: expressed in transfected cells; host or cells: HEK-293T; details: Capsaicin 1 µM for 3 h, Figure 2B
# TRPV-1, sequence (Q8NER1 whole entry): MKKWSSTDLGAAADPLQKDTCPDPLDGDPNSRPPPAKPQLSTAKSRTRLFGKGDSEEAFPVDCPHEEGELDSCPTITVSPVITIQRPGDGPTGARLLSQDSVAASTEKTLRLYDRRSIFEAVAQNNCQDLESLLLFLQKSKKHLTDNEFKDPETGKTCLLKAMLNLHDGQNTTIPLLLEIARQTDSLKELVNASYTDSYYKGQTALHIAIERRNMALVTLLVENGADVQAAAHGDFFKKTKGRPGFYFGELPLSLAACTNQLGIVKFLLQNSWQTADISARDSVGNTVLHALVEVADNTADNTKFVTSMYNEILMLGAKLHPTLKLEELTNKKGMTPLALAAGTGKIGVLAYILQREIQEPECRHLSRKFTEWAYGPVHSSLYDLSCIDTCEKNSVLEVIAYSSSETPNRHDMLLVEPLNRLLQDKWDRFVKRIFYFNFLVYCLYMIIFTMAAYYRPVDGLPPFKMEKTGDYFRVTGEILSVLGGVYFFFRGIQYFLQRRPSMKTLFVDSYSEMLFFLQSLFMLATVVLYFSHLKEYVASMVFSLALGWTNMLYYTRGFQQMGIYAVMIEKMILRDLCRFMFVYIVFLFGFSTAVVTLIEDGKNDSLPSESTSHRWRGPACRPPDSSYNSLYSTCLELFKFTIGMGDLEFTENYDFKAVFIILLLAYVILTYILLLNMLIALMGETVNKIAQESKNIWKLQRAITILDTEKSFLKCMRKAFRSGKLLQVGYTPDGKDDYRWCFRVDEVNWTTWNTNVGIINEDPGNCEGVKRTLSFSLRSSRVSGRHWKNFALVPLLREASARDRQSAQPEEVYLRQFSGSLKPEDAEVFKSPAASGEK
# Method: Capsaicin-induced cytotoxicity as a model of TRPV-1 agonistic assay was also investigated in HEK-293T-TRPV1 cells. The cells (2x10^4/well) were cultured in triplicate in 96-well microtiter plates in 200 µL of complete medium and incubated with (-)CBD or (+)CBD and then stimulated with the agonist Capsaicin (1 µM) for 3 h. Capzasepine (10 µM) was used as the positive control of TRPV-1 antagonism. Then, TRPV-1 induced cytotoxicity was measured by fluorescence using the die YOYO-1 (Life Technologies). YOYO-1 was diluted in cell culture medium and added to a final concentration of 0.1 µM to both experimental and control wells. YOYO-1 is a cell impermeant cyanine dimer nucleic acid stain that can only enter cells with a compromised plasma membrane and fluorescently stain the nuclear DNA. By adding YOYO-1 to damaged cells an increase in YOYO-1 fluorescence is detected. Treated cells are placed in an Incucyte FLR imaging system, and the YOYO-1 fluorescence is measured after 3 h. […] Object counting analysis is performed using the Incucyte FLR software to calculate the total number of YOYO-1 fluorescence positive cells and total DNA containing objects (end point). The cytotoxicity index is calculated by dividing the number of YOYO-1 fluorescence positive objects by the total number of DNA containing objects for each treatment group.
# [3] = tested on: mouse seizure model; details: Leite et al. 1982; cited from earlier work
# [4] = tested on: CB1; details: Bisogno et al. 2001; cited from earlier work
# [5] = target: CB2 (Homo sapiens, UniProt P34972); details: Bisogno et al. 2001; cited from earlier work
# CB2, sequence (P34972 whole entry, species assumed): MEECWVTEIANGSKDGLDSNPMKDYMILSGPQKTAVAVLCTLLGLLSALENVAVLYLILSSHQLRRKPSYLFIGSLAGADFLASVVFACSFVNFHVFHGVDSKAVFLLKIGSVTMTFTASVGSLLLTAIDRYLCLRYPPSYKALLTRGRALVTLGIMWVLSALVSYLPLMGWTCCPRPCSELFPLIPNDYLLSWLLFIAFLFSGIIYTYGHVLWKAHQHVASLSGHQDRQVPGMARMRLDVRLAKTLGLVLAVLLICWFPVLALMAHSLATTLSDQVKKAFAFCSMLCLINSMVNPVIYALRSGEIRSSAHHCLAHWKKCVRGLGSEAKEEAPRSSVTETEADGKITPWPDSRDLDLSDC
# [6] = tested on: diabetes-associated myocardial fibrosis; details: Rajesh et al. 2010; cited from earlier work
# [7] = tested on: Il13, IL1β, IL6, CCL2, TGFβ and IL4; assay: Real-time quantitative PCR of inflammatory and fibrotic cytokines in skin of BLM mice; assay type: in vivo; details: mRNA, 2^-ΔΔCt, Figure 11
# Method: Total RNA was isolated from mice frozen skin tissue using QIAzol lysis reagent (Qiagen, Hilden, Germany) and purified with RNeasy mini kit (Qiagen). Total RNA (1 µg) was retrotranscribed using the iScript™ cDNA Synthesis Kit (Bio-Rad), and the cDNA generated was analysed by real-time PCR using the iQTM SYBR Green Supermix (Bio-Rad) using a CFX96 Real-Time PCR Detection System (Bio-Rad). […] The GAPDH housekeeping gene was used to standardize the mRNA expression levels in every sample. Expression levels were calculated using the 2^-ΔΔCt method. Gene expression were normalized to GADPH mRNA levels in each sample and expressed using the 2^-ΔΔCt method. Table 1. List of mouse primer sequences used in quantitative Polymerase Chain Reaction
# [8] = tested on: BLM-induced fibrosis; assay: Bleomycin (BLM) mouse model of skin fibrosis, histology and observation; assay type: in vivo, Mice
# Method: The bleomycin (BLM) mice model is widely used to evaluate potential anti-inflammatory and anti-fibrotic therapies for SSc. BLM causes inflammation in a short period of time, characterized by elevation of proinflammatory cytokines and growth factors that peak around day 14 of BLM exposure. […] The inflammatory model of SSc was used to study (-)CBD preventive effects. Fibrosis was induced by daily subcutaneous administration of BLM (50 µg/mice; 100 µl) (Mylan, Barcelona, Spain) for 3 weeks. Treatments were administered in parallel and consisted of daily intraperitoneal (i.p.) injections of (-)CBD (20 mg/kg), or vehicle (4% DMSO, 6.2% Tween20, saline; 100 µl). Subcutaneous injections of 0.9% NaCl served as a control. Mice were acclimated to manipulators for a week previously to the experiments in order to reduce stress and allow the detection of subtle changes in behavior by researchers. […] Mice were sacrificed by cervical dislocation and the back skin was removed and processed for histological examination or was frozen for further analysis.
# Mast cells degranulation as well as macrophages and lymphocyte accumulation are the hallmark of BLM-induced fibrosis and play important roles during the inflammatory phase of SSc. Mast cells degranulation can be identified by toluidine blue staining and macrophage accumulation by staining with a mAb that identifies F4/80^+ cells. Skin sections ([…]) were stained toluidine blue. For immunohistochemical detection of macrophages F4/80 (1:50; MCA497, Bio-Rad) antibody was used. Slides were developed with diaminobenzidine chromogen (Merck Millipore) and counterstained in Harris hematoxylin. Slides were photographed, digitalized using a Leica DFC420c camera and analyzed using Image J software.
# [9] = BLM 3 weeks, 20 mg/kg i.p. daily, Figure 8
SMILES,activation of the Nrf2 pathway [1],capsaicin-induced cytotoxicity (cytotoxicity index) [2],anticonvulsant activity [3],affinity at CB1 receptors [4],affinity at CB2 receptors [5],diabetes-associated myocardial fibrosis [6],expression levels of CCL2 in the skin [7],expression levels of IL1β in the skin [7],expression levels of IL4 in the skin [7],expression levels of IL6 in the skin [7],expression levels of Il13 in the skin [7],expression levels of TGFβ in the skin [7],"dermal thickness [8, 9]","loss of adipose tissue layer induced by BLM [8, 9]","piloerection, hunched appearances ([8]; during the experimental procedures, 20 mg/kg i.p. daily)","behavioral changes ([8]; during the protocols, 20 mg/kg i.p. daily)","Mice weight ([8]; evaluated weekly, between experimental groups, 20 mg/kg i.p. daily)","infiltration of F4/80^+ macrophages ([8]; immunostaining, versus BLM untreated mice, 20 mg/kg i.p., Figure 10)","number of degranulated mast cells in the lesioned skin ([8]; toluidine blue, BLM 3 weeks, 20 mg/kg i.p., Figure 9)"
"C=C(C)[C@H]1CCC(C)=C[C@@H]1c1c(O)cc(CCCCC)cc1O [(+)CBD, (+)Cannabidiol]",able to activate the Nrf2 pathway in keratinocytes and in a concentration-dependent manner,prevent capsaicin-induced calcium mobilization,more active than the (-)CBD isomer,has been shown to have affinity,has been shown to have affinity,,,,,,,,,,,,,,
"C=C(C)[C@@H]1CCC(C)=C[C@H]1c1c(O)cc(CCCCC)cc1O [(-)CBD, 2-[(1R,6R)-3-methyl-6-prop-1-en-2-ylcyclohex-2-en-1-yl]-5-pentylbenzene-1,3-diol]",able to activate the Nrf2 pathway in keratinocytes and in a concentration-dependent manner,prevent capsaicin-induced calcium mobilization,,,,attenuates,significantly reduced,significantly reduced,significantly reduced,significantly reduced,significantly reduced,significantly reduced,attenuated,not were able to recover,Neither piloerection nor hunched appearances were appreciated,No behavioral changes,no significant changes,significantly reduced,prevented
